Test results published in ChEMBL document CHEMBL5131479, “Phage display-based discovery of cyclic peptides against the broad spectrum bacterial anti-virulence target CsrA” (Eur J Med Chem, 2022).
Where a SMILES comes first, the peptide text is derived from it. Bridges are numbered along the chain shown (N, C = ends). Triazole bridges read from a SMILES are 1,4-linked. [ ]: non-standard residue; d: D form. Ala(indol-2-yl) = N[C@@H](Cc1cc2ccccc2[nH]1)C(=O)O; Dap(N3) = [N-]=[N+]=NC[C@H](N)C(=O)O; Aha = [N-]=[N+]=NCC[C@H](N)C(=O)O; Pra = C#CC[C@H](N)C(=O)O

Assays:
[1] = Inhibition of 5'-UUCACGGAGAA[flc] mRNA binding to biotinylated His6-tagged Yersinia pseudotuberculosis CsrA measured by fluorescence polarization assay
[2] = target: Carbon storage regulator (Escherichia coli, UniProt P69913); assay: Inhibition of 5'-AGACAAGGAUGU[flc] mRNA binding to biotinylated His6-tagged Escherichia coli CsrA measured by fluorescence polarization assay
[3] = Inhibition of 5'-UUCACGGAGAA[flc] mRNA binding to biotinylated His6-tagged Yersinia pseudotuberculosis CsrA measured in presence of 5 mM DTT by fluorescence polarization assay
[4] = Binding affinity towards biotinylated His6-tagged Yersinia pseudotuberculosis CsrA measured by Microscale thermophoresis assay (MST)

Carbon storage regulator, sequence (P69913 whole entry): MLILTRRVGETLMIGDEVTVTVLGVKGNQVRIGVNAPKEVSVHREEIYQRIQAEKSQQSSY

**Q.** With CC[C@H](C)[C@H](NC(=O)[C@H]1CCCCN1C)C(=O)N[C@H](CCc1nc(C(=O)N[C@@H](Cc2ccc(O)cc2)C[C@H](C)C(=O)O)cs1)C(C)C as the compound, how does the IC50 [1] read?
**A.** Its IC50 is 11 µM.

**Q.** For CC(=O)N[C@H](C(=O)N[C@H]1Cc2cn(nn2)CC[C@@H](C(=O)N[C@@H](Cc2c[nH]c3ccccc23)C(N)=O)NC(=O)[C@H](CC(C)C)NC(=O)[C@H](CCC(=O)O)NC(=O)[C@H](CO)NC1=O)C(C)C (Ac-V[Pra]SEL[Aha]W-NH2; triazole 2-6), which IC50 [1] is on record?
**A.** The IC50 was 76 µM.

**Q.** What about the IC50 [2] of the same compound?
**A.** The IC50 was 3.4 µM.

**Q.** Which results are given for CC(=O)N[C@H](C(=O)N[C@H]1Cc2cnnn2C[C@@H](C(=O)N[C@@H](Cc2c[nH]c3ccccc23)C(N)=O)NC(=O)[C@H](CC(C)C)NC(=O)[C@H](CCC(=O)O)NC(=O)[C@H](CO)NC1=O)C(C)C?
**A.** IC50 [1]: 178 µM; IC50 [2]: 48.1 µM

**Q.** With CC(=O)N[C@H](C(=O)N[C@H]1CSSC[C@@H](C(=O)N[C@@H](Cc2cc3ccccc3[nH]2)C(N)=O)NC(=O)[C@H](C)NC(=O)[C@H](CCC(=O)O)NC(=O)[C@H](CO)NC1=O)C(C)C (Ac-VCSEAC[Ala(indol-2-yl)]-NH2; disulfide 2-6) as the compound, how does the IC50 [1] read?
**A.** The IC50 was 57.9 µM.

**Q.** For CC(=O)N[C@H](C(=O)N[C@H]1CSSC[C@@H](C(=O)N[C@@H](C)C(N)=O)NC(=O)[C@H](CC(C)C)NC(=O)[C@H](CCC(=O)O)NC(=O)[C@H](CO)NC1=O)C(C)C (Ac-VCSELCA-NH2; disulfide 2-6), which IC50 [1] is on record?
**A.** The IC50 was over 500 µM.

**Q.** With CC(=O)N[C@H](C(=O)N[C@H]1CSSC[C@@H](C(=O)N[C@@H](Cc2cc3ccccc3[nH]2)C(N)=O)NC(=O)[C@H](CC(C)C)NC(=O)[C@H](CCC(=O)O)NC(=O)[C@H](C)NC1=O)C(C)C (Ac-VCAELC[Ala(indol-2-yl)]-NH2; disulfide 2-6) as the compound, how does the IC50 [1] read?
**A.** The IC50 was over 1000 µM.

**Q.** For CC(=O)N[C@H](C(=O)N[C@H]1Cc2cnnn2CC[C@@H](C(=O)N[C@@H](Cc2c[nH]c3ccccc23)C(N)=O)NC(=O)[C@H](CC(C)C)NC(=O)[C@H](CCC(=O)O)NC(=O)[C@H](CO)NC1=O)C(C)C, which IC50 [1] is on record?
**A.** The IC50 was 337 µM.

**Q.** And the IC50 [2]?
**A.** The IC50 was 51.6 µM.

**Q.** For CC(=O)N[C@H](C(=O)N[C@H]1Cc2cn(nn2)C[C@@H](C(=O)N[C@@H](Cc2c[nH]c3ccccc23)C(N)=O)NC(=O)[C@H](CC(C)C)NC(=O)[C@H](CCC(=O)O)NC(=O)[C@H](CO)NC1=O)C(C)C (Ac-V[Pra]SEL[Dap(N3)]W-NH2; triazole 2-6), which IC50 [1] is on record?
**A.** Its IC50 is 35.3 µM.

**Q.** What about the IC50 [2] of the same compound?
**A.** The IC50 was 4.9 µM.

**Q.** Which IC50 [1] does the source give for CC(=O)N[C@H](C(=O)N[C@H]1CSSC[C@@H](C(N)=O)NC(=O)[C@H](CC(C)C)NC(=O)[C@H](CCC(=O)O)NC(=O)[C@H](CO)NC1=O)C(C)C (Ac-VCSELC-NH2; disulfide 2-6) here?
**A.** Its IC50 is over 1000 µM.

**Q.** For CC(=O)N[C@H]1CSSC[C@@H](C(=O)N[C@@H](Cc2cc3ccccc3[nH]2)C(N)=O)NC(=O)[C@H](CC(C)C)NC(=O)[C@H](CCC(=O)O)NC(=O)[C@H](CO)NC1=O (Ac-CSELC[Ala(indol-2-yl)]-NH2; disulfide 1-5), which IC50 [1] is on record?
**A.** The IC50 was 128 µM.

**Q.** For CC(=O)N[C@H](C(=O)N[C@H]1CSSC[C@@H](C(=O)N[C@@H](Cc2cc3ccccc3[nH]2)C(=O)O)NC(=O)[C@H](CC(C)C)NC(=O)[C@H](CCC(=O)O)NC(=O)[C@H](CO)NC1=O)C(C)C (Ac-VCSELC[Ala(indol-2-yl)]-OH; disulfide 2-6), which IC50 [1] is on record?
**A.** The IC50 was 17.4 µM.

**Q.** Which IC50 [1] does the source give for Ac-VASELAW-NH2 here?
**A.** Its IC50 is over 1000 µM.

**Q.** With CC(=O)N[C@@H](C)C(=O)N[C@H]1CSSC[C@@H](C(=O)N[C@@H](Cc2cc3ccccc3[nH]2)C(N)=O)NC(=O)[C@H](CC(C)C)NC(=O)[C@H](CCC(=O)O)NC(=O)[C@H](CO)NC1=O (Ac-ACSELC[Ala(indol-2-yl)]-NH2; disulfide 2-6) as the compound, how does the IC50 [1] read?
**A.** The IC50 was 114 µM.

**Q.** Which results are given for CC(=O)N[C@H](C(=O)N[C@H]1CSSC[C@@H](C(=O)N[C@@H](Cc2cc3ccccc3[nH]2)C(N)=O)NC(=O)[C@H](CC(C)C)NC(=O)[C@H](CCC(=O)O)NC(=O)[C@H](CO)NC1=O)C(C)C (Ac-VCSELC[Ala(indol-2-yl)]-NH2; disulfide 2-6)?
**A.** IC50 [1]: 6.9 µM; IC50 [3]: > 1000 µM; Kd [4]: 10.5 µM; IC50 [2]: 182 µM

**Q.** Which IC50 [1] does the source give for CC(=O)N[C@H](C(=O)N[C@H]1CCn2nncc2C[C@@H](C(=O)N[C@@H](Cc2c[nH]c3ccccc23)C(N)=O)NC(=O)[C@H](CC(C)C)NC(=O)[C@H](CCC(=O)O)NC(=O)[C@H](CO)NC1=O)C(C)C here?
**A.** Its IC50 is 309 µM.

**Q.** And the IC50 [2]?
**A.** The IC50 was 83.4 µM.

**Q.** With CC(C)C[C@@H]1NC(=O)[C@H](CCC(=O)O)NC(=O)[C@H](CO)NC(=O)[C@@H](NC(=O)[C@@H](N)C(C)C)CSSC[C@@H](C(=O)N[C@@H](Cc2cc3ccccc3[nH]2)C(N)=O)NC1=O (H-VCSELC[Ala(indol-2-yl)]-NH2; disulfide 2-6) as the compound, how does the IC50 [1] read?
**A.** Its IC50 is 27.6 µM.

**Q.** For CC(=O)N[C@H](C(=O)N[C@H]1CSSC[C@@H](C(=O)N[C@@H](Cc2cc3ccccc3[nH]2)C(N)=O)NC(=O)[C@H](CC(C)C)NC(=O)[C@H](C)NC(=O)[C@H](CO)NC1=O)C(C)C (Ac-VCSALC[Ala(indol-2-yl)]-NH2; disulfide 2-6), which IC50 [1] is on record?
**A.** The IC50 was 22.8 µM.

**Q.** Which results are given for CC(=O)N[C@H](C(=O)N[C@H]1Cn2cc(nn2)C[C@@H](C(=O)N[C@@H](Cc2c[nH]c3ccccc23)C(N)=O)NC(=O)[C@H](CC(C)C)NC(=O)[C@H](CCC(=O)O)NC(=O)[C@H](CO)NC1=O)C(C)C (Ac-V[Dap(N3)]SEL[Pra]W-NH2; triazole 2-6)?
**A.** IC50 [1]: 92.8 µM; IC50 [2]: 6.8 µM
